Laboratory results reported in US10266526B2, “Substituted 1,2,3-triazoles as SMYD inhibitors for treating cancer” (EPIZYME, INC., priority 2014, dated 2019).

target: SMYD2 (Homo sapiens (Human), UniProt Q9NRG4); assay: SMYD2 biochemical assay (SMYD2 enzyme assay on peptide substrate, 3H-SAM Flashplate); settings: not given
Sequence (Q9NRG4 whole entry): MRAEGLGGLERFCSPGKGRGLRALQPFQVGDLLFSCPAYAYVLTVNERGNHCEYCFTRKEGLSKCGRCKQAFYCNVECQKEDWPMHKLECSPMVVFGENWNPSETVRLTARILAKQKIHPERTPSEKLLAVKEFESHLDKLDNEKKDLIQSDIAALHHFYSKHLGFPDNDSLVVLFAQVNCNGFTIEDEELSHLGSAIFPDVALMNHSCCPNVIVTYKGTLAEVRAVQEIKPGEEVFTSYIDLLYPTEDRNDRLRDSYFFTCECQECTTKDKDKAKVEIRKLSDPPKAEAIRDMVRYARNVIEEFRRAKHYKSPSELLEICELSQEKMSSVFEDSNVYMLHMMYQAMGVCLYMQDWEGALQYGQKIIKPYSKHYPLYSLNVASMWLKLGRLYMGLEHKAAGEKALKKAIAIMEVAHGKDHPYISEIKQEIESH

Row | IC50 [nM] | Compound
1 | 14300 | C[C@H](c1cccc(OCCO)c1Cl)N1CC(NC(=O)c2cn(C3CC3)nn2)C1 (single isomer, unassigned) [compound 832]

same assay, conditions: read-out: SMYD2 Biochem IC50; IC50 values are an average of n = 1 to n = 50

Row | IC50 [nM] | Compound
2 | 1980 | CC(c1ccc(OCCN(C)C)cc1)N1CC(NC(=O)c2cn(C3CC3)nn2)C1 (stereo not drawn) [compound 857, 1-cyclopropyl-N-[1-(1-{4-[2-(dimethylamino)ethoxy]phenyl}ethyl)azetidin-3-yl]-1H-1,2,3-triazole-4-carboxamide]
3 | 2850 | CC(c1c(F)cccc1F)N1CC(NC(=O)c2cn(C3CC3)nn2)C1 (stereo not drawn) [compound 742, 1-cyclopropyl-N-{1-[1-(2,6-difluorophenyl)ethyl]azetidin-3-yl}-1H-1,2,3-triazole-4-carboxamide]
4 | 920 | O=C(NC1CN(Cc2cnn(Cc3ncco3)c2)C1)c1cn(C2CC2)nn1 [compound 944, 1-cyclopropyl-N-(1-((1-(oxazol-2-ylmethyl)-1H-pyrazol-4-yl)methyl)azetidin-3-yl)-1H-1,2,3-triazole-4-carboxamide]
5 | 2660 | O=C(NC1CN(Cc2ccc(OCc3ccccn3)cc2)C1)c1cn(C2CC2)nn1 [compound 849, 1-cyclopropyl-N-(1-{[4-(pyridin-2-ylmethoxy)phenyl]methyl}azetidin-3-yl)-1H-1,2,3-triazole-4-carboxamide]
6 | 36800 | CC(NC(=O)c1cc(C2CC2)cnn1)C1CN(C(C)C)C1 (stereo not drawn) [compound 840, 5-cyclopropyl-N-{1-[1-(propan-2-yl)azetidin-3-yl]ethyl}pyridazine-3-carboxamide]
7 | 312 | COc1c(OCCO)cccc1C(C)N1CC(NC(=O)c2cc(C3CC3)cnn2)C1 (stereo not drawn) [compound 650, 5-cyclopropyl-N-(1-{1-[3-(2-hydroxyethoxy)-2-methoxyphenyl]ethyl}azetidin-3-yl)pyridazine-3-carboxamide]
8 | 2000 | CC(c1ccc(OCCN(C)C)cc1)N1CC(NC(=O)c2cn(C3CC3)nn2)C1 (stereo not drawn) [compound 959, 1-cyclopropyl-N-(1-(1-(4-(2-(dimethylamino)ethoxy)phenyl)ethyl)azetidin-3-yl)-1H-1,2,3-triazole-4-carboxamide]
9 | 160 | CC(c1ccccc1Cl)N1CC(NC(=O)c2cn(C3CC3)nn2)C1 (stereo not drawn) [compound 859, N-{1-[1-(2-chlorophenyl)ethyl]azetidin-3-yl}-1-cyclopropyl-1H-1,2,3-triazole-4-carboxamide]
10 | 3000 | COCCCOc1ccc(CN2CC(NC(=O)c3cn(C4CC4)nn3)C2)cc1 [compound 818, 1-cyclopropyl-N-(1-{[4-(3-methoxypropoxy)phenyl]methyl}azetidin-3-yl)-1H-1,2,3-triazole-4-carboxamide]
11 | > 50000 | CC(c1cccc(OCC(O)CO)c1Cl)N1CC(NC(=O)c2cn(C3CC3)nn2)C1 (stereo not drawn) [compound 973, N-(1-(1-(2-chloro-3-(2,3-dihydroxypropoxy)phenyl)ethyl)azetidin-3-yl)-1-cyclopropyl-1H-1,2,3-triazole-4-carboxamide]
12 | 160 | COc1ccc(COc2ccc(C(C)N3CC(NC(=O)c4cn(C5CC5)nn4)C3)cc2)cc1 (stereo not drawn) [compound 957, 1-cyclopropyl-N-(1-(1-(4-((4-methoxybenzyl)oxy)phenyl)ethyl)azetidin-3-yl)-1H-1,2,3-triazole-4-carboxamide]
13 | 2790 | COc1ccc(Cl)cc1C(C)N1CC(NC(=O)c2cn(C3CC3)nn2)C1 (stereo not drawn) [compound 860, N-{1-[1-(5-chloro-2-methoxyphenyl)ethyl]azetidin-3-yl}-1-cyclopropyl-1H-1,2,3-triazole-4-carboxamide]
14 | 2000 | CCn1cc(CN2CC(NC(=O)c3cn(C4CC4)nn3)C2)cn1 [compound 946, 1-cyclopropyl-N-(1-((1-ethyl-1H-pyrazol-4-yl)methyl)azetidin-3-yl)-1H-1,2,3-triazole-4-carboxamide]
15 | 73 | O=C(NC1CN(Cc2cnn(Cc3ccccc3)c2)C1)c1cc(C2CC2)on1 [compound 955, N-(1-((1-benzyl-1H-pyrazol-4-yl)methyl)azetidin-3-yl)-5-cyclopropylisoxazole-3-carboxamide]
16 | 1300 | CC(C)N1CC(NC(=O)c2cc(C3CC3)ccn2)C1 [compound 961, 4-cyclopropyl-N-(1-isopropylazetidin-3-yl)picolinamide]
17 | 640 | CC(c1cccc(OCCO)c1)N1CC(NC(=O)c2cn(C3CC3)nn2)C1 (stereo not drawn) [compound 704, 1-cyclopropyl-N-(1-{1-[3-(2-hydroxyethoxy)phenyl]ethyl}azetidin-3-yl)-1H-1,2,3-triazole-4-carboxamide]
18 | 24 | O=C(NC1CN(Cc2cnn(Cc3cccc(Cl)c3)c2)C1)c1cn(C2CC2)nn1 [compound 987, N-(1-((1-(3-chlorobenzyl)-1H-pyrazol-4-yl)methyl)azetidin-3-yl)-1-cyclopropyl-1H-1,2,3-triazole-4-carboxamide]
19 | 603 | COc1ccc(C(C)N2CC(NC(=O)c3cc(C4CC4)cnn3)C2)cc1 (stereo not drawn) [compound 856, 5-cyclopropyl-N-{1-[1-(4-methoxyphenyl)ethyl]azetidin-3-yl}pyridazine-3-carboxamide]
20 | 110 | O=C(NC1CN(Cc2cnn(Cc3ccccc3Cl)c2)C1)c1cn(C2CC2)nn1 [compound 942, N-(1-((1-(2-chlorobenzyl)-1H-pyrazol-4-yl)methyl)azetidin-3-yl)-1-cyclopropyl-1H-1,2,3-triazole-4-carboxamide]

target: SMYD3 (Homo sapiens (Human), UniProt Q9H7B4); assay: SMYD3 biochemical assay (SMYD3 enzyme assay on MEKK2 protein substrate, 3H-SAM scintillation proximity assay); settings: Table 1A; average of n = 1 to n = 50; read-out: SMYD3 Biochem IC50
Sequence (Q9H7B4 whole entry): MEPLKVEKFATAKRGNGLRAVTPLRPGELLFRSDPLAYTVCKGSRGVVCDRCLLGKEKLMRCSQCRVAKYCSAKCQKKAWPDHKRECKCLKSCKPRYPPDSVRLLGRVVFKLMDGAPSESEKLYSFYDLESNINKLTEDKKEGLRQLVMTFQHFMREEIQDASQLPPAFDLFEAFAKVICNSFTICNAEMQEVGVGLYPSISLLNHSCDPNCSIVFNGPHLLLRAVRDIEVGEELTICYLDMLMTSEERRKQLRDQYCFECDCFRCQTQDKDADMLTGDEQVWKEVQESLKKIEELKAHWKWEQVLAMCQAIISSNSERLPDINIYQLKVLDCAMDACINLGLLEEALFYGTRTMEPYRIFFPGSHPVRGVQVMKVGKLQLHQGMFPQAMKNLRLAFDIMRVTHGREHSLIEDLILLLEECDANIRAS
Procedure, shortened: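 Native full-length human SMYD3, expressed in E. coli, was preincubated with compound for 30 min at room temperature in 25 mM Tris-Cl pH 8.0, 1 mM TCEP, 0.005% BSG and 0.005% Tween 20. ³H-SAM plus GST-MEKK2 then started the reaction. It was stopped with unlabeled SAM (100 uM final), and methylated MEKK2 was read by SPA.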

Row | IC50 [µM] | Compound
21 | > 50 | Cc1cc2cc(C(=O)NC(C)C3CCN(C(=O)[C@H](C)N)CC3)ccc2[nH]1 (stereo partly drawn) [compound 538, N-(1-(1-(L-alanyl)piperidin-4-yl)ethyl)-2-methyl-1H-indole-5-carboxamide]

same assay, conditions: read-out: SMYD3 Biochem IC50

Row | IC50 [µM] | Compound
22 | > 100 | N[C@H]1CC[C@H](NC(=O)c2cccc3[nH]ccc23)CC1 [compound 291, N-((1r,4r)-4-aminocyclohexyl)-1H-indole-4-carboxamide]
23 | > 100 | Cc1cnc(C(=O)NC(C)C2CCN(C(=O)[C@H](C)N)CC2)cn1 (stereo partly drawn) [compound 185, N-(1-(1-(L-alanyl)piperidin-4-yl)ethyl)-5-methylpyrazine-2-carboxamide]
24 | 48.1 | CC(NC(=O)[C@H]1Cc2ccccc2CN1)C1CCN(C(=O)[C@H](C)N)CC1 (stereo partly drawn) [compound 306, (3R)-N-(1-(1-(L-alanyl)piperidin-4-yl)ethyl)-1,2,3,4-tetrahydroisoquinoline-3-carboxamide]
25 | > 50 | NC1CCC(NC(=O)c2c[nH]cn2)CC1 (stereo not drawn) [compound 517, N-(4-aminocyclohexyl)-1H-imidazole-4-carboxamide]
26 | 37.5 | NCCC(=O)N[C@H]1CC[C@H](NC(=O)c2n[nH]c3ccccc23)CC1 [compound 425, N-((1r,4r)-4-(3-aminopropanamido)cyclohexyl)-1H-indazole-3-carboxamide]
27 | > 100 | CC(NC(=O)c1ccc(O)cn1)C1CCN(C(=O)[C@H](C)N)CC1 (stereo partly drawn) [compound 310, N-(1-(1-(L-alanyl)piperidin-4-yl)ethyl)-5-hydroxypicolinamide]

same assay, conditions: read-out: SMYD3 Biochem IC50 (μM)*

Row | IC50 [µM] | Compound
28 | 86.9 | CC(NC(=O)c1ccc2ccc(O)nc2c1)C1CCN(C(=O)[C@H](C)N)CC1 (stereo partly drawn) [compound 120, N-(1-(1-(L-alanyl)piperidin-4-yl)ethyl)-2-hydroxyquinoline-7-carboxamide]
29 | > 100 | N[C@H]1CC[C@H](NC(=O)c2ccncc2)CC1 [compound 140, N-((1r,4r)-4-aminocyclohexyl)isonicotinamide]
30 | 10.2 | C[C@H](N)C(=O)N1CC[C@@H](CNC(=O)c2ccc3c(c2)CC(=O)N3)C1 [compound 134, N-(((S)-1-(L-alanyl)pyrrolidin-3-yl)methyl)-2-oxoindoline-5-carboxamide]
